{
  "source": "patent EP1649859A1",
  "about": "“Pharmaceutical compositions comprising at least one poorly diffusible anticancer drug and a olidodeoxynucleotide immunestimulant” (Institut Gustave Roussy, priority 2004, dated 2006)",
  "origin": "cited, not measured here",
  "conditions": "bléomycine seule à des doses sub-thérapeutiques",
  "data": [
    {"substance": "bléomycine", "values": [
      {"measurement": "activité antitumorale propre", "value": "ne possèdent pas d'activité antitumorale propre"}
    ]}
  ]
}
